From paper PMC8808744 (ACS chemical biology, 2019)
Values after ≈ are worked out from the molar mass of the structure shown.

Experiments:
SltB1 = SltB1 (Pseudomonas aeruginosa, UniProt Q9HX24); test: biochemical; type: binding
MltDsol = MltDsol (Pseudomonas aeruginosa, UniProt Q9I2T2); test: biochemical; type: binding
Ec MltGsol = Ec MltGsol (Escherichia coli, UniProt P28306); test: Dissociation constant by non-denaturing mass spectrometry, E. coli MltGsol; type: binding
Slt = Slt (Pseudomonas aeruginosa, UniProt Q9HZI6); test: biochemical; type: binding
P. aeruginosa PAO1 [1] = type: cell-based, Pseudomonas aeruginosa
P. aeruginosa PAO1 [2] = test: MIC against parent strain PAO1; type: cell-based; conditions: Pseudomonas aeruginosa
[3] = system: wild-type P. aeruginosa PAO1; test: Growth-curve assay in liquid medium; type: cell-based, Pseudomonas aeruginosa; conditions: CAZ at 0.28 μg mL^−1, MEM at 0.14 μg mL^−1 (sub-MIC)

Chain of Slt (Q9HZI6 25-642 limits assumed): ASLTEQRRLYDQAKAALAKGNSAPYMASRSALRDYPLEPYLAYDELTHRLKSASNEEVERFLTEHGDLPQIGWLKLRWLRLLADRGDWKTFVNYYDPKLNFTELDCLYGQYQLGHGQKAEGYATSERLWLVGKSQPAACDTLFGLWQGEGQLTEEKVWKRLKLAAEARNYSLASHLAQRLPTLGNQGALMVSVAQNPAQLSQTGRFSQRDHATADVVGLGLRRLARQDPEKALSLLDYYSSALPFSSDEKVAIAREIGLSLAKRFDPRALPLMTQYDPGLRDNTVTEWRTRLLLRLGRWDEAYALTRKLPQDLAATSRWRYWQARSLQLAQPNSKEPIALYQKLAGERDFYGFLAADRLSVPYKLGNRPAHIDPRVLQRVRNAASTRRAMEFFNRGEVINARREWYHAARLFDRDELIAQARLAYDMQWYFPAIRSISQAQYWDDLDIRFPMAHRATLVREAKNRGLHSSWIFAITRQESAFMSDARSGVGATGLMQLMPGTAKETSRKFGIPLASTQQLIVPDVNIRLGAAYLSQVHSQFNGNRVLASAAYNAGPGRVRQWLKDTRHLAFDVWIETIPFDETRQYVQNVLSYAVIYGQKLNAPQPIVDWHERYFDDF
Chain of SltB1 (Q9HX24 34-340 limits assumed): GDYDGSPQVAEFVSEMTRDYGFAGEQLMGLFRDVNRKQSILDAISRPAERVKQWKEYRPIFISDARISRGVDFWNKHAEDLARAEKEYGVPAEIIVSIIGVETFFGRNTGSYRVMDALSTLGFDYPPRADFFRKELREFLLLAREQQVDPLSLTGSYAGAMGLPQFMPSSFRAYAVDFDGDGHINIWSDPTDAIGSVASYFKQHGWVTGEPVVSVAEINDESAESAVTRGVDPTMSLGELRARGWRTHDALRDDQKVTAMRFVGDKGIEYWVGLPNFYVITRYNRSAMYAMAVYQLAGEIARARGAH
Chain of MltDsol (Q9I2T2 32-534 limits assumed): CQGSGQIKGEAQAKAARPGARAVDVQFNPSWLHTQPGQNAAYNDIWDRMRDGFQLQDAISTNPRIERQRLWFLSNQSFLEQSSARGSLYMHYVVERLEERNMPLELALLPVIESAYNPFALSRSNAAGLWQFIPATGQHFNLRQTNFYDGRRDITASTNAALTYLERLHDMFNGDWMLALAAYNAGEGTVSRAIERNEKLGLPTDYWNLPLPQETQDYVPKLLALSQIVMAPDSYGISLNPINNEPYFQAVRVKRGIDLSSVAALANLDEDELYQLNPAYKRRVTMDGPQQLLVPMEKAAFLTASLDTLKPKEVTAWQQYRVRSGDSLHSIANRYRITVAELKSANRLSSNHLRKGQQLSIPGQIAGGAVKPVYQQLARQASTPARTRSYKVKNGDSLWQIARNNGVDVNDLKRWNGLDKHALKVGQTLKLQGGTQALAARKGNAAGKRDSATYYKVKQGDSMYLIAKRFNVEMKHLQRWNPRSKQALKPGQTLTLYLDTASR
Chain of Ec MltGsol (P28306 25-340 with tags or gaps limits assumed): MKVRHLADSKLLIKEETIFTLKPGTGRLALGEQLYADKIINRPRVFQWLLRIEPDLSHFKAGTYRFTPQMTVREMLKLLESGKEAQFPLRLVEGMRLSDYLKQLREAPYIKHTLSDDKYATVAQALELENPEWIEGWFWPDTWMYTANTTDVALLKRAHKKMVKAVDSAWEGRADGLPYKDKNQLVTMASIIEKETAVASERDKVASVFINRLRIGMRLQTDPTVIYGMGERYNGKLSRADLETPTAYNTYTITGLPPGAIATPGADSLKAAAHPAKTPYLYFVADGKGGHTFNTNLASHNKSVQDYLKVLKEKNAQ

Structure (SMILES) | Kd (SltB1) [µM] | Kd (MltDsol) [nM] | Kd (Ec MltGsol) [µM] | Kd (Slt) [µM] | recovery of CAZ/bulgecin A-damaged bacteria (P. aeruginosa PAO1 [1]) | MIC (P. aeruginosa PAO1 [2]) [µg/mL] | growth of wild-type PAO1 with β-lactam alone [3]
CC(=O)N[C@H]1[C@H](O[C@H]2C[C@@H](C(=O)NCCS(=O)(=O)O)N[C@@H]2CO)O[C@H](CO)[C@@H](OS(=O)(=O)O)[C@@H]1O [Bulgecin A] | 160 ± 21 | 1400 ± 300 | 24 ± 5.1 | 8.5 ± 1.1 | delayed recovery |  | 
CC(C)(O/N=C(\C(=O)N[C@@H]1C(=O)N2C(C(=O)[O-])=C(C[n+]3ccccc3)CS[C@H]12)c1csc(N)n1)C(=O)O [CAZ, Ceftazidime] |  |  |  |  |  | 0.5 (≈ 0.915 µM) | normal growth
C[C@@H](O)[C@H]1C(=O)N2C(C(=O)O)=C(S[C@@H]3CN[C@H](C(=O)N(C)C)C3)[C@H](C)[C@H]12 [MEM, Meropenem] |  |  |  |  |  | 0.5 (≈ 1.3 µM) | normal growth
